Data published in ChEMBL document CHEMBL3885881, “DrugMatrix”.

Species on record: Rattus norvegicus
Test: DrugMatrix - Regimen: Daily Repeat
Assay type: toxicity, organism-based, Sprague-Dawley
Parameters: regimen Daily Repeat, gender Male, age 6-8 weeks
Conditions: in vivo, po, route oral GAVAGE, […]; for ABSOLUTE BASOPHIL / ABSOLUTE EOSINOPHIL / ABSOLUTE LYMPHOCYTE / ABSOLUTE MONOCYTE / ABSOLUTE SEGMENTED NEUTROPHIL / BASOPHIL / EOSINOPHIL / ERYTHROCYTE COUNT / HEMATOCRIT / HEMOGLOBIN / LEUKOCYTE COUNT / LYMPHOCYTE / MEAN CORPUSCULAR HEMOGLOBIN / MEAN CORPUSCULAR HEMOGLOBIN CONCENTRATION / MEAN CORPUSCULAR VOLUME / MONOCYTE / NEUTROPHIL / NUCLEATED RED BLOOD CELLS / PLATELET COUNT: tissue Blood; for ALANINE AMINOTRANSFERASE / ALBUMIN / ALKALINE PHOSPHATASE / ASPARTATE AMINOTRANSFERASE / BLOOD UREA NITROGEN / CARBON DIOXIDE / CHLORIDE / CHOLESTEROL / CREATINE PHOSPHOKINASE / CREATININE / GLUCOSE / LACTATE DEHYDROGENASE / LIPASE / PHOSPHORUS / POTASSIUM / SODIUM / TOTAL BILIRUBIN / TOTAL PROTEIN / URIC ACID: tissue Plasma
[1] = 0 mg/kg, 72 h, dose level Control, time 3 day
[2] = 0 mg/kg, 120 h, dose level Control, time 5 day
[3] = 13 mg/kg, 72 h, dose level Low, time 3 day

Compound: CN(C)c1nc(N(C)C)nc(N(C)C)n1 [ALTRETAMINE]
- ABSOLUTE BASOPHIL [1]: 0 CELLS/uL
- ABSOLUTE EOSINOPHIL [1]: 70.67 CELLS/uL
- ABSOLUTE LYMPHOCYTE [1]: 12761.5 CELLS/uL
- ABSOLUTE MONOCYTE [1]: 214.17 CELLS/uL
- ABSOLUTE SEGMENTED NEUTROPHIL [1]: 987 CELLS/uL
- BASOPHIL [1]: 0%
- EOSINOPHIL [1]: 0.5%
- ERYTHROCYTE COUNT [1]: 5.61 x10E6/uL
- HEMATOCRIT [1]: 35.22%
- HEMOGLOBIN [1]: 13.57 G/DL
- LEUKOCYTE COUNT [1]: 14.03 x10E3/uL
- LYMPHOCYTE [1]: 91%
- MEAN CORPUSCULAR HEMOGLOBIN [1]: 24.25 pg
- MEAN CORPUSCULAR HEMOGLOBIN CONCENTRATION [1]: 38.52 G/DL
- MEAN CORPUSCULAR VOLUME [1]: 62.9 fL
- MONOCYTE [1]: 1.5%
- NEUTROPHIL [1]: 7%
- NUCLEATED RED BLOOD CELLS [1]: 0 /100WBC
- PLATELET COUNT [1]: 997.5 x10E3/uL
- ALANINE AMINOTRANSFERASE [1]: 66.5 u/L
- ALBUMIN [1]: 3.98 G/DL
- ALKALINE PHOSPHATASE [1]: 350 u/L
- ASPARTATE AMINOTRANSFERASE [1]: 83.83 u/L
- BLOOD UREA NITROGEN [1]: 12.33 mg/dL
- CARBON DIOXIDE [1]: 30.33 mmol/L
- CHLORIDE [1]: 100 MEQ/L
- CHOLESTEROL [1]: 75 mg/dL
- CREATINE PHOSPHOKINASE [1]: 200 u/L
- CREATININE [1]: 0.17 mg/dL
- GLUCOSE [1]: 170 mg/dL
- LACTATE DEHYDROGENASE [1]: 89.33 u/L
- LIPASE [1]: 10.33 u/L
- PHOSPHORUS [1]: 10.88 mg/dL
- POTASSIUM [1]: 6.13 MEQ/L
- SODIUM [1]: 140.53 MEQ/L
- TOTAL BILIRUBIN [1]: 0.2 mg/dL
- TOTAL PROTEIN [1]: 5.67 G/DL
- URIC ACID [1]: 1.6 mg/dL
- ABSOLUTE BASOPHIL [2]: 0 CELLS/uL
- ABSOLUTE EOSINOPHIL [2]: 0 CELLS/uL
- ABSOLUTE LYMPHOCYTE [2]: 9526.67 CELLS/uL
- ABSOLUTE MONOCYTE [2]: 134.17 CELLS/uL
- ABSOLUTE SEGMENTED NEUTROPHIL [2]: 922.5 CELLS/uL
- BASOPHIL [2]: 0%
- EOSINOPHIL [2]: 0%
- ERYTHROCYTE COUNT [2]: 5.58 x10E6/uL
- HEMATOCRIT [2]: 34.78%
- HEMOGLOBIN [2]: 13.5 G/DL
- LEUKOCYTE COUNT [2]: 10.58 x10E3/uL
- LYMPHOCYTE [2]: 90.17%
- MEAN CORPUSCULAR HEMOGLOBIN [2]: 24.27 pg
- MEAN CORPUSCULAR HEMOGLOBIN CONCENTRATION [2]: 38.82 G/DL
- MEAN CORPUSCULAR VOLUME [2]: 62.48 fL
- MONOCYTE [2]: 1.17%
- NEUTROPHIL [2]: 8.67%
- NUCLEATED RED BLOOD CELLS [2]: 0.17 /100WBC
- PLATELET COUNT [2]: 807.17 x10E3/uL
- ALANINE AMINOTRANSFERASE [2]: 66.83 u/L
- ALBUMIN [2]: 3.73 G/DL
- ALKALINE PHOSPHATASE [2]: 286.17 u/L
- ASPARTATE AMINOTRANSFERASE [2]: 142.33 u/L
- BLOOD UREA NITROGEN [2]: 14.67 mg/dL
- CARBON DIOXIDE [2]: 25.5 mmol/L
- CHLORIDE [2]: 89.17 MEQ/L
- CHOLESTEROL [2]: 75.17 mg/dL
- CREATINE PHOSPHOKINASE [2]: 310.67 u/L
- CREATININE [2]: 0.2 mg/dL
- GLUCOSE [2]: 153 mg/dL
- LACTATE DEHYDROGENASE [2]: 1594 u/L
- LIPASE [2]: 14.83 u/L
- PHOSPHORUS [2]: 11.28 mg/dL
- POTASSIUM [2]: 8.46 MEQ/L
- SODIUM [2]: 126.88 MEQ/L
- TOTAL BILIRUBIN [2]: 0.37 mg/dL
- TOTAL PROTEIN [2]: 5.53 G/DL
- URIC ACID [2]: 1.52 mg/dL
- ABSOLUTE BASOPHIL [3]: 0 CELLS/uL
- ABSOLUTE EOSINOPHIL [3]: 45.67 CELLS/uL
- ABSOLUTE LYMPHOCYTE [3]: 11954 CELLS/uL
- ABSOLUTE MONOCYTE [3]: 232.67 CELLS/uL
- ABSOLUTE SEGMENTED NEUTROPHIL [3]: 1567.67 CELLS/uL
- BASOPHIL [3]: 0%
- EOSINOPHIL [3]: 0.33%
- ERYTHROCYTE COUNT [3]: 5.86 x10E6/uL
- HEMATOCRIT [3]: 37.47%
- HEMOGLOBIN [3]: 14.6 G/DL
- LEUKOCYTE COUNT [3]: 13.8 x10E3/uL
- LYMPHOCYTE [3]: 86.67%
- MEAN CORPUSCULAR HEMOGLOBIN [3]: 24.97 pg
- MEAN CORPUSCULAR HEMOGLOBIN CONCENTRATION [3]: 38.97 G/DL
- MEAN CORPUSCULAR VOLUME [3]: 64 fL
- MONOCYTE [3]: 1.67%
- NEUTROPHIL [3]: 11.33%
- NUCLEATED RED BLOOD CELLS [3]: 0 /100WBC
- PLATELET COUNT [3]: 1022.33 x10E3/uL
- ALANINE AMINOTRANSFERASE [3]: 99.33 u/L
- ALBUMIN [3]: 4.03 G/DL
- ALKALINE PHOSPHATASE [3]: 392.33 u/L
- ASPARTATE AMINOTRANSFERASE [3]: 89.67 u/L
- BLOOD UREA NITROGEN [3]: 12.33 mg/dL
- CARBON DIOXIDE [3]: 29 mmol/L
- CHLORIDE [3]: 99 MEQ/L
- CHOLESTEROL [3]: 87.33 mg/dL
- CREATINE PHOSPHOKINASE [3]: 288 u/L
- CREATININE [3]: 0.18 mg/dL
- GLUCOSE [3]: 161 mg/dL
- LACTATE DEHYDROGENASE [3]: 193 u/L
- LIPASE [3]: 10.67 u/L
- PHOSPHORUS [3]: 11.53 mg/dL
- POTASSIUM [3]: 6.64 MEQ/L
- SODIUM [3]: 140.43 MEQ/L
- TOTAL BILIRUBIN [3]: 0.23 mg/dL
- TOTAL PROTEIN [3]: 5.83 G/DL
- URIC ACID [3]: 1.97 mg/dL
